Assays:
KIBG-5 cells = experiment: Biliary cancer model in hamster (7 treatment groups); format: in vivo, Syrian golden hamsters; details: Compound 3 25 mg/kg/day P.O.
Procedure: Six week old female Syrian golden hamsters (Harlan, Indianapolis, […], USA) were housed in specific pathogen free unit. 5×10^5 KIBG-5 cells (Molecular therapy, Vol. 3, No. 4, pp 431-437) suspended in 100 μl of RPMI 1640 serum-free medium were intravenously injected via femoral vein. And 5×10^5 KIBG-5 cells suspended in 100 μl of RPMI 1640 serum-free medium were subcutaneously injected to the flank of the hamsters. Hamsters injected KIBG-5 were divided into following 7 groups;
1) Control group treated with RPMI medium,
2) Experimental group treated with non-modified BMSC cells (2.5×10^6) (Leukemia & Lymphoma, Vol. 44, No. 11, pp 1973-1978),
3) Experimental group treated with BMSC cells modified with Ad/ΔE1 50 MOI (Leukemia & Lymphoma, Vol. 44, No. 11, pp 1973-1978),
4) Experimental group treated with DC+ tumor lysate (5×10^6),
5) Experimental group treated with BMSC cells modified with Ad/hIL-2 50 MOI (Leukemia & Lymphoma, Vol. 44, No. 11, pp 1973-1978),
One week after the injection of cancer cells to hamsters (BMSC treated group), 2.5×10^6 of BMSC cells were injected once again to each hamster. In the case of DC+tumor lysate treated group, 5×10^6 of DC cells and tumor lysate were injected to each hamster (with subcutaneous injection or intravenous injection) at the first, second, third, forth, sixth, eighth week, followed by observation for 12 weeks.

malignant melanoma cells = experiment: Cytotoxicity of T-cells activated by Compound 3 to malignant melanoma cells; format: cell-based; details: ratio of T-cells activated by Compound 3 to melanoma cells 100:1; FIG. 16: 1 μg/ml
rats = experiment: Long term hepatotoxicity test; format: in vivo; details: 100 mg/Kg body weight/day P.O. for 4 weeks
Excerpt: At the end of 4 weeks liver histology was observed.

T-cells = experiment: T-cell proliferation (3H-thymidine incorporation, SI); format: cell-based, C57BL/6 mice; details: 7th day
Excerpt: Splenocytes were collected from C57BL/6 mice (provided from Asan Institute for Life Sciences Animal Lab., Seoul, Korea) spleens. Then, single cell suspensions were obtained by repeated aspiration and flushing. Red blood cells were removed using ammonium chloride and then passed through nylon wool to remove debris and clumps. T-cells were purified using magnetic bead (MACS bead, Miltenyi Biotec, bergich gladbach, Germany) containing anti-goat IgG MACS bead, Miltenyi Biotec, bergich gladbach, Germany) or anti-mouse CD4 (MACS bead, Miltenyi Biotec, bergich gladbach, Germany) or anti-mouse CD8 antibody (MACS bead, Miltenyi Biotec, bergich gladbach, Germany) (Turner and Dockrell (1996) Immunology, 87: 339-342).
T cell suspensions were suspended in Isocove's modified Dulbecco's medium (IMDM, Gibco, Grand Island, N.Y.) supplemented with 10% fetal bovine serum (referred as ‘FBS’ hereinafter) (Gibco, Grand Island, N.Y.). […] On the 6th day, cells were incubated with 1 μCi ^3H-thymidine/well for 24 hours. On the 7th day, the cells were harvested and the […] (referred as ‘SI’ hereinafter) was calculated by the following Mathematical Formula 1. SI=^3H-thymidine absorbed by wells of experimental group (CPM in sample)/^3H-thymidine absorbed by wells of control group (CPM in control) [Mathematical Formula 1]

dendritic cells = experiment: Expression of adhesion molecules of dendritic cells (RT-PCR); format: cell-based, Balb/c AnN mice; details: 1 μg/ml, compared to control
Procedure: Bone marrow cells were obtained from the femurs and tibias of Balb/c AnN mice (Park, J. et al. (2003) J. Korean Med. Sci., 18: 372-380). The cells were washed 3 times in RPMI, and then mononuclear cells were obtained. These mononuclear cells were allowed to adhere to tissue culture flask 3 hours in RPMI and 10% FBS. After incubation, the adherent cells (monocytes) were removed and non-adherent cells were placed in 100 mm tissue culture dishes, in a concentration of 1×10^5 cells/ml in RPMI plus 10% FBS supplemented with 20 ng/ml murine rGM-CSF (R & D systems, Minneapolis, Minn., USA), 10 ng/ml, murine IL-4 (R&D systems), and 2.5 ng/ml murine TNF-α (R & D systems). Culture dishes were fed every 3 days. Murine TNF-α (R & D systems) was added at the 6th day of the culture. After that, murine TNF-α (R & D systems) was added every 3 days until on the 11th day. Mature dendritic cells were harvested for RT-PCR of adhesion molecule studies. […]
Total RNA separated from dendritic cells and MS-5, low density cells cultured with oligo(dt)-primer, was reverse-transcribed, and PCR was performed at 94° C. for 30 seconds, 65° C. for 30 seconds and 72° C. for 50 seconds. […] For the quantification, PCR with GAPDH was performed to confirm the corresponding cDNA.

Q: For `CCCCC/C=C\C/C=C\CCCCCCCC(=O)OC(COC(C)=O)COC(=O)CCCCCCCCCCCCCCC` (stereo not shown) [Compound 3], which tumor formation (KIBG-5 cells; 4 weeks after cancer cell injection) is on record?
A: no tumor were found

Q: What about the metastatic lung lesions (KIBG-5 cells; 8 weeks after cancer cell injection (i.v.)) of the same molecule?
A: only one minute lung lesion was found

Q: And the cytotoxicity increased (malignant melanoma cells)?
A: 42%

Q: What about the “adverse effect (liver function test, lipid profile, cytochrome C-450 activity, liver histology)” value (rats) of the same molecule?
A: No significantly adverse effect was observed

Q: And the SI (T-cells; 0.01 μg/ml)?
A: 1.83 ± 0.32

Q: And the SI (T-cells; 0.1 μg/ml)?
A: 1.96 ± 0.18

Q: What about the “expressions of adhesion molecules Icam-2, VLA-5, LFA-1” value (dendritic cells) of the same molecule?
A: significantly increased

From US7662853B2, “Monoacetyldiacylglycerol derivative for the treatment of sepsis” (priority 2004, dated 2010)
